In data set [1] the test system is pentylenetetrazol seizures. The data set can be described thus: subcutaneous pentylenetetrazol (scMet) test, Phase I, mice ip. The data set is classed as in vivo, male Carworth Farms No. 1 (CF1) mice. Conditions: Mus musculus, mice ip. The method, then: (§1) Initial evaluations for anticonvulsant activity include phases I, VIA and VIB test procedures. These tests are performed intraperitoneally in male Carworth Farms No. 1 (CF1) mice, weighing 18-25 g (Phase I) or orally in male Sprague-Dawley rats, weighing 100-150 g (Phases VIA and VIB). The evaluation is based on three tests: maximal electroshock (MES), subcutaneous (scMet), and the rotorod test for neurological toxicity (Tox). (a) Anticonvulsant Screening Project, Antiepileptic Drug Development Program, National Institutes of Health, DHEW Publ (NIH)(U.S.) 1978, NIH 78-1093. (b) Porter, R. J.; Cereghino, J. J.; Gladding, G. D.; Hessie, B. J.; Kupferberg, H. J.; Scoville, B.; White, B. G. Antiepileptic drug development program. Cleveland Clin. Q. 1984, 51, 293-305. (c) Krall, R. L.; Penry, J. K.; White, B. G.; Kupferberg, H. J.; Swinyard, E. A. Antiepileptic drug development: II. Anticonvulsant drug screening. Epilepsia 1978, 19, 400-428. In the MES test, maximal electroshock seizures are elicited with a 60- cycle alternating current of 50 mA intensity (5-7 times that necessary to elicit minimal electroshock seizures) delivered via corneal electrodes for 0.2 seconds. A drop of 0.9% saline is placed on the eye prior to application of the electrodes in order to […]. Abolition of the hind limb tonic extension component of the seizure is defined as protection and results are expressed as the number of animals protected/the number of animals tested.
In the sc MET test, eighty-five mg/kg of pentylenetetrazol, which induces seizures in more than 95% of mice, is administered as a 0.5% solution subcutaneously in the posterior midline. The animal is observed for 30 minutes. Failure to observe even a threshold seizure (a single episode of clonic spasms of at least 5 seconds duration) is defined as protection and the results are expressed as the number of animals protected/ the number of animals tested. […]

The test system of data set [2] is maximal electroshock seizures. The data set can be described thus: maximal electroshock (MES) test, Phase I, mice ip. The data set is classed as in vivo, male Carworth Farms No. 1 (CF1) mice. The settings on record: for responders at 30 mg/kg / responders at 100 mg/kg / responders at 300 mg/kg / responders at 10 mg/kg: Mus musculus. The method, then:
as §1
In phase I, compounds are suspended in 0.5% aqueous methylcellulose and are administered intraperitoneally at three dosage levels (30, 100, and 300 mg/kg) with anticonvulsant activity and motor impairment noted 30 min and 4 h (and in some cases 2 h and 6 h) after administration.
On the technique in general: The maximal electroshock test induces tonic seizures with an electrical stimulus.

For data set [3], the system named is neurotoxicity (rotorod). The experiment in a line: rotorod test for neurological toxicity (Tox), Phase I, mice ip. In kind it is in vivo, male Carworth Farms No. 1 (CF1) mice. The method, then: as §1
The rotorod test is used to evaluate neurotoxicity. The animal is placed on a 1 inch diameter knurled plastic rod rotating at 6 rpm. Normal mice can remain on a rod rotating at this speed indefinitely. […]
In general terms: The rotarod test checks motor coordination on a turning rod.

In data set [4] the test system is maximal electroshock seizures. The data set can be described thus: maximal electroshock (MES) test, oral rat (Phase VIA/VIB). In kind it is in vivo, male Sprague-Dawley rats. Conditions: 30 mg/kg. The method, then: as §1
(§2) To differentiate the results between different rodent species, 4b (X=H), as well as 4a (R=H), 4e (R=Cl), 4f (R=Cl) and 4i (R=CH3) are subsequently evaluated for oral (po) activity in the rat (Phase VIA or VIB).

For data set [5], the system named is neurotoxicity (rotorod). The experiment in a line: rotorod toxicity, oral rat (Phase VIA/VIB). In kind it is in vivo, male Sprague-Dawley rats. Conditions: rat oral, 30 mg/kg. The protocol:
as §1
The rotorod test is used to evaluate neurotoxicity. The animal is placed on a 1 inch diameter knurled plastic rod rotating at 6 rpm. Normal mice can remain on a rod rotating at this speed indefinitely.
as §2

The mark [6] stands for this setting: 0.5 h, 30 min, read-out: scMet 30 min.
The mark [7] stands for this setting: 0.5 h, 30 min, read-out: scMet 30 min (converted).
[8] abbreviates: 4 h, read-out: scMet 4 h (converted).
Setting [9] is: 100 mg/kg, 4 h, read-out: MES 4 h (converted).
Setting [10] is: 4 h, read-out: MES 4 h (converted).
[11] abbreviates: 0.5 h, 30 min, read-out: MES 30 min (converted).
Setting [12] is: 0.5 h, 100 mg/kg, 30 min, read-out: MES 30 min (converted).

The source of these data is patent publication US5994349A, “3-carboalkoxy-2, 3-dihydro-1H-phenothiazin-4[10H]-one derivatives” (priority 1997, dated 1999).

Read-outs that look alike come from different tables or passages of the source.

In the case of `CCOC(=O)[C@@H]1C(=O)C2=C(C[C@H]1C)Nc1ccc(C)cc1S2` (relative stereo) [Compound 4i, 3-Carbethoxy-2,7-dimethyl-2,3-dihydro-1H-phenothiazin-4[10H]-one], the responders at 30 mg/kg in data set [1] (setting [6]) was 0%; in data set [1] (4 h, read-out: scMet 4 h), 0%; in data set [2] (4 h, read-out: MES 4 h), 0%; in data set [2] (setting [11]), 50%; in data set [4] (0.25 h) it was 0%; in data set [4] (1.00 h) it was 75%. Also, the responders at 30 mg/kg in data set [4] (2.00 h) was 25%; in data set [4] (4.00 h), 0%; in data set [4] (0.5 h, 0.50 h) it was 50%. Moreover, the responders at 100 mg/kg in data set [1] (setting [6]) is 0%; in data set [1] (4 h, read-out: scMet 4 h) it was 0%; in data set [2] (setting [9]), 0%; in data set [2] (setting [12]), 33.3%. In addition, the responders at 300 mg/kg is 0% in data set [1] (setting [7]), 0% in data set [1] (setting [8]), 100% in data set [2] (setting [10]) and 100% in data set [2] (setting [11]). Besides, the “Tox 30 min” value in data set [3] (30 mg/kg) was 0/4; in data set [3] (100 mg/kg), 0/8; in data set [3] (300 mg/kg) it was 0/4. In addition, the “Tox 4 h” value in data set [3] (30 mg/kg) was 0/2; in data set [3] (100 mg/kg), 0/4; in data set [3] (300 mg/kg) it was 0/2. Further, the Tox in data set [5] (0.25 h), in data set [5] (0.50 h), in data set [5] (1.00 h), in data set [5] (2.00 h) and in data set [5] (4.00 h) was 0/4 throughout.
Take `CCOC(=O)[C@@H]1C(=O)C2=C(C[C@H]1C)Nc1ccc(Br)cc1S2` (relative stereo) [Compound 4k, 7-Bromo-3-carbethoxy-2-methyl-2,3-dihydro-1H-phenothiazin-4[10H]-one]: the responders at 10 mg/kg in data set [1] (setting [6]) is 0%; in data set [1] (4 h, read-out: scMet 4 h), 0%; in data set [2] (4 h, read-out: MES 4 h), 0%; in data set [2] (0.5 h, 30 min, read-out: MES 30 min), 0%. Moreover, the responders at 30 mg/kg is 0% in data set [1] (setting [6]); 0% in data set [1] (4 h, read-out: scMet 4 h); 0% in data set [2] (4 h, read-out: MES 4 h); 0% in data set [2] (setting [11]). The responders at 100 mg/kg in data set [1] (setting [6]) was 0%; in data set [1] (4 h, read-out: scMet 4 h), 0%; in data set [2] (setting [9]), 0%; in data set [2] (setting [12]), 0%. Also, the responders at 300 mg/kg in data set [1] (setting [7]) is 0%; in data set [1] (setting [8]) it was 0%; in data set [2] (setting [10]) it was 100%; in data set [2] (setting [11]) it was 100%. Also, the “Tox 30 min” value in data set [3] (10 mg/kg) was 0/4; in data set [3] (30 mg/kg) it was 0/8; in data set [3] (100 mg/kg), 0/4; in data set [3] (300 mg/kg), 0/8. Further, the “Tox 4 h” value in data set [3] (10 mg/kg) is reported as 0/2; in data set [3] (30 mg/kg), 0/4; in data set [3] (100 mg/kg), 0/2; in data set [3] (300 mg/kg), 0/4.
As to `C[C@@H]1CC2=C(Sc3ccccc3N2)C(=O)[C@H]1C(=O)OC(C)(C)C` (relative stereo) [Compound 4c, 3-Carbo-ter-butoxy-2-methyl-2,3-dihydro-1H-phenothiazin-4[10H]-one], the responders at 30 mg/kg in data set [1] (setting [6]) was 0%; in data set [1] (4 h, read-out: scMet 4 h) it was 0%; in data set [2] (4 h, read-out: MES 4 h), 0%; in data set [2] (setting [11]), 0%. The responders at 100 mg/kg was 0% in data set [1] (setting [6]); 0% in data set [1] (4 h, read-out: scMet 4 h); 33.3% in data set [2] (setting [9]); 0% in data set [2] (setting [12]). Besides, the responders at 300 mg/kg in data set [1] (setting [7]) was 0%; in data set [1] (setting [8]) it was 0%; in data set [2] (setting [10]), 100%; in data set [2] (setting [11]), 0%. In addition, the “MES animals protected at 2 h” value in data set [2] (100 mg/kg, 2 h) is listed as 1/3. Besides, in data set [2] (100 mg/kg, 6 h), the “MES animals protected at 6 h” value is given as 0/3. Besides, the “Tox 30 min” value in data set [3] (30 mg/kg) was 0/4; in data set [3] (100 mg/kg), 0/8; in data set [3] (300 mg/kg) it was 0/4. The “Tox 4 h” value was 0/2 in data set [3] (30 mg/kg), 0/4 in data set [3] (100 mg/kg) and 0/2 in data set [3] (300 mg/kg). Further, the “toxic at 2 h” value in data set [3] (100 mg/kg, 2 h) was 1/3. Besides, the “toxic at 6 h” value in data set [3] (100 mg/kg, 6 h) was 0/3.
Take `COC(=O)[C@@H]1C(=O)C2=C(C[C@H]1C)Nc1ccc(C)cc1S2` (relative stereo) [Compound 4h]: the responders at 30 mg/kg in data set [1] (setting [6]) is 0%; in data set [1] (4 h, read-out: scMet 4 h), 0%; in data set [2] (4 h, read-out: MES 4 h) it was 0%; in data set [2] (setting [11]), 0%. For the same compound, the responders at 100 mg/kg was 0% in data set [1] (setting [6]); 0% in data set [1] (4 h, read-out: scMet 4 h); 33.3% in data set [2] (setting [9]); 0% in data set [2] (setting [12]). For the same compound, the responders at 300 mg/kg in data set [1] (setting [7]) is 0%; in data set [2] (setting [10]), 100%; in data set [2] (setting [11]), 100%. Besides, the “MES animals protected at 0.25 h” value in data set [2] (100 mg/kg, 0.25 h) is reported as 2/3. The “Tox 30 min” value in data set [3] (30 mg/kg) is 0/4; in data set [3] (100 mg/kg), 0/8; in data set [3] (300 mg/kg), 0/3. For the same compound, the “Tox 4 h” value in data set [3] (30 mg/kg) is listed as 0/2; in data set [3] (100 mg/kg) it was 0/4; in data set [3] (300 mg/kg), 0/1.
As for `C[C@@H]1CC2=C(Sc3cc(Cl)ccc3N2)C(=O)[C@H]1C(=O)OC(C)(C)C` (relative stereo) [Compound 4g, 7-Chloro-3-carbo-ter-butoxy-2-methyl-2,3-dihydro-1H-phenothiazin-4[10H]-one], the responders at 30 mg/kg is 0% in data set [1] (setting [6]); 0% in data set [1] (4 h, read-out: scMet 4 h); 0% in data set [2] (4 h, read-out: MES 4 h); 0% in data set [2] (setting [11]). The responders at 100 mg/kg in data set [1] (setting [6]) is 0%; in data set [1] (4 h, read-out: scMet 4 h) it was 0%; in data set [2] (setting [9]) it was 33.3%; in data set [2] (setting [12]), 0%. Moreover, the responders at 300 mg/kg was 0% in data set [1] (setting [7]), 0% in data set [1] (setting [8]), 100% in data set [2] (setting [10]) and 0% in data set [2] (setting [11]). The “Tox 30 min” value in data set [3] (30 mg/kg) is given as 0/4; in data set [3] (100 mg/kg), 0/8; in data set [3] (300 mg/kg), 0/4. Further, the “Tox 4 h” value in data set [3] (30 mg/kg) is recorded as 0/2; in data set [3] (100 mg/kg), 0/4; in data set [3] (300 mg/kg), 0/2.
